Measurements taken from patent publication US10696693B2, “Fused imidazole derivatives as TGF-beta inhibitors” (Rigel Pharmaceuticals, Inc., priority 2014, dated 2020).
Read-outs that look alike come from different tables or passages of the source.

Tests used:
GDF8 = assay: AlphaScreen SureFire p-SMAD3 (Ser423/425) assay, GDF8-stimulated cells; format: cell-based; conditions: Mus musculus
Outline: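 A SureFire AlphaScreen assay measured phosphorylation of endogenous SMAD-3 at Ser423/425 in cell lysates. Cells were treated with three-fold serially diluted compounds in DMSO for about 10 minutes, then stimulated with GDF8. After medium removal, cells were lysed in 1× Lysis Buffer (about 25 μL) with gentle shaking for 5-10 minutes.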

TGF-β = assay: AlphaScreen SureFire p-SMAD3 (Ser423/425) assay, TGF-β-stimulated cells; format: cell-based; conditions: Mus musculus
Outline: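 The p-SMAD-3 (Ser423/425) SureFire assay measured phosphorylation of endogenous SMAD-3 in cell lysates. Cells were plated overnight in collagen-coated plates, exposed to three-fold serially diluted compounds for about 10 minutes, then stimulated with TGFβ. Lysates (5 μL) received acceptor bead mix for 2 hours, then donor beads for 1½ hours before AlphaScreen reading.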

[1] = MPC-11, read-out: GDF8: inhibition of GDF8 signaling, GDF pSMAD (MPC11), p-SMAD3 (Ser423/425) AlphaScreen in cell lysate, GDF8 stimulation
[2] = MPC-11, read-out: TGF-β: inhibition of TGF-β signaling, TGF-β pSMAD (MPC-11), p-SMAD3 (Ser423/425) AlphaScreen in cell lysate, TGF-β stimulation
[3] = MPC-11, p-SMAD3 (Ser423/425) AlphaScreen in cell lysate, MPC11, GDF8 stimulation, read-out: GDF8: inhibition of GDF8 signaling, GDF pSMAD (MPC11)
[4] = p-SMAD3 (Ser423/425) AlphaScreen in cell lysate, MPC-11, TGF-β stimulation, read-out: TGF-β: inhibition of TGF-β signaling, TGF-β pSMAD (MPC-11)

Row | SMILES | IC50 (GDF8; [3]) | IC50 (TGF-β; [4]) | IC50 (GDF8; [1]) | IC50 (TGF-β; [2])
1 | Fc1ccc(-c2nc3n(c2-c2ccc4[nH]ncc4c2)CCC3)c(F)c1F [Compound 225, 5-(2-(2,3,4-trifluorophenyl)-6,7-dihydro-5H-pyrrolo[1,2-a]imidazol-3-yl)-1H-indazole] | – | – | 0.1 to 1 µM | 0.1 to 1 µM
2 | Cc1ccc(F)cc1-c1nc2n(c1-c1ccc3nccn3c1)CCC2 [Compound 59, 6-(2-(5-fluoro-2-methylphenyl)-6,7-dihydro-5H-pyrrolo[1,2-a]imidazol-3-yl)imidazo[1,2-a]pyridine] | > 1 µM | > 1 µM | – | –
3 | Cc1cc(-c2nc3n(c2-c2ccc4nccn4c2)CCC3)c(F)cc1Cl [Compound 29] | > 1 µM | > 1 µM | – | –
4 | Fc1ccc(-c2nc3n(c2-c2ccc4ncnn4c2)CC2(CCCC2)C3)cc1 [Compound 71, 3′-([1,2,4]triazolo[1,5-a]pyridin-6-yl)-2′-(4-fluorophenyl)-5′H,7′H-spiro[cyclopentane-1,6′-pyrrolo[1,2-a]imidazole]] | – | – | > 1 µM | > 1 µM
5 | Cc1cc(-c2nc3n(c2-c2ccc4nccn4c2)CCC3)cc(Cl)c1F [Compound 41, 6-(2-(3-chloro-4-fluoro-5-methylphenyl)-6,7-dihydro-5H-pyrrolo[1,2-c]imidazol-3-yl)imidazo[1,2-c]pyridine] | > 1 µM | > 1 µM | – | –
6 | CN(C)CCOc1cnc2ccc(-c3c(-c4cc(F)c(F)cc4F)nc4n3CCC4)cc2n1 [Compound 362, N,N-dimethyl-2-((7-(2-(2,4,5-trifluorophenyl)-6,7-dihydro-5H-pyrrolo[1,2-a]imidazol-3-yl)quinoxalin-2-yl)oxy)ethan-1-amine] | – | – | 0.1 to 1 µM | 0.1 to 1 µM
7 | Cc1cc(-c2nc3n(c2-c2ccc4nccn4c2)CCC3)c(C)cc1F [Compound 65, 6-(2-(4-fluoro-2,5-dimethylphenyl)-6,7-dihydro-5H-pyrrolo[1,2-a]imidazol-3-yl)imidazo[1,2-a]pyridine] | 0.1 to 1 µM | > 1 µM | – | –
8 | COc1c(C)cc(-c2nc3n(c2-c2ccc4ncccc4c2)CCC3)cc1C [Compound 259, 6-(2-(4-methoxy-3,5-dimethylphenyl)-6,7-dihydro-5H-pyrrolo[1,2-a]imidazol-3-yl)quinoline] | > 1 µM | > 1 µM | – | –
9 | Fc1cccc(F)c1-c1nc2n(c1-c1ccc3nccn3c1)CCC2 [Compound 11] | 0.1 to 1 µM | > 1 µM | – | –

More lines, main results first:

Row | IC50 (GDF8; [3]) | IC50 (TGF-β; [4]) | SMILES | IC50 (GDF8; [1]) | IC50 (TGF-β; [2])
10 | 0.05 to 0.1 µM | 0.1 to 1 µM | Fc1cc(F)c(-c2nc3n(c2-c2ccc4ncc(OCCN5CCOCC5)nc4c2)CCN3)cc1F [Compound 122, 4-(2-((7-(6-(2,4,5-trifluorophenyl)-2,3-dihydro-1H-imidazo[1,2-a]imidazol-5-yl)quinoxalin-2-yl)oxy)ethyl)morpholine] | – | –
11 | < 0.05 µM | 0.05 to 0.1 µM | Fc1cc(F)c(-c2nc3occn3c2-c2ccc3ncccc3c2)cc1F [Compound 150, 5-(quinolin-6-yl)-6-(2,4,5-trifluorophenyl)imidazo[2,1-b]oxazole] | – | –
12 | 0.1 to 1 µM | > 1 µM | Cc1cc(F)c(Cl)cc1-c1nc2n(c1-c1ccc3[nH]ncc3c1)CCC2 [Compound 296, 5-(2-(5-chloro-4-fluoro-2-methylphenyl)-6,7-dihydro-5H-pyrrolo[1,2-a]imidaol-3-yl)-1H-indazole] | – | –
13 | 0.05 to 0.1 µM | 0.1 to 1 µM | Cc1cccc(-c2nc3n(c2-c2ccc4[nH]cnc4c2)CCC3)c1 [Compound 171, 5-(2-(m-tolyl)-6,7-dihydro-5H-pyrrolo[1,2-a]imidazol-3-yl)-1H-benzo[d]imidazole] | – | –
14 | < 0.05 µM | < 0.05 µM | Fc1cc(F)c(-c2nc3n(c2-c2ccc4ncnn4c2)CCN3)cc1F [Compound 105, 6-(6-(2,4,5-trifluorophenyl)-2,3-dihydro-1H-imidazo[1,2-a]imidazol-5-yl)-[1,2,4]triazolo[1,5-a]pyridine] | – | –
15 | < 0.05 µM | < 0.05 µM | Fc1cc(F)c(-c2nc3n(c2-c2ccc4ncccc4c2)CCN3)cc1F [Compound 107, 6-(6-(2,4,5-trifluorophenyl)-2,3-dihydro-1H-imidazo[1,2-a]imidazol-5-yl)quinoline] | – | –
